The values that follow come from PubChem BioAssay (NCI).

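Following 48 hours of exposure in 96-well plates, responses at five concentrations were used to interpolate endpoints linearly. TGI is the concentration that stops growth completely.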

Among the test systems are A498 renal; HOP-62 NSCLC; MOLT-4 leukemia; OVCAR-3 ovarian; SNB-19 CNS; UACC-257 melanoma; UACC-62 melanoma.
Assay in all cases: DTP human tumour cell line panel, 48 h

Regarding `CC1=C(C(=O)NCc2ccccc2)C(c2ccccc2C)C(C(=O)NCc2ccccc2)=C(C)N1`, the TGI in the assay with A498 renal was above 100 µM; in the assay with HOP-62 NSCLC, 69.7 µM; in the assay with MOLT-4 leukemia, above 100 µM; in the assay with OVCAR-3 ovarian it was 45.5 µM; in the assay with SNB-19 CNS, above 100 µM; in the assay with UACC-257 melanoma, above 76.4 µM. In addition, the TGI with UACC-62 melanoma came to 38.8 µM.

For the compound `COc1cc2c(cc1O)CN1CCC23C=C[C@@H](O)CC13` (some centres undefined), the concentration for total growth inhibition (TGI) in the assay with A498 renal, in the assay on HOP-62 NSCLC, with MOLT-4 leukemia, with OVCAR-3 ovarian, in the assay on SNB-19 CNS and with UACC-257 melanoma was above 100 µM throughout. This compound yielded a TGI in the assay with UACC-62 melanoma above 100 µM.

On to `Cc1cc(=O)n(-c2c(C)cccc2Cl)c(/C=C(\O)c2ccncc2)n1`, for which the TGI with A498 renal, in the assay with HOP-62 NSCLC, with MOLT-4 leukemia, in the assay on OVCAR-3 ovarian, with SNB-19 CNS and with UACC-257 melanoma was above 100 µM each time. The compound further showed a TGI in the assay with UACC-62 melanoma above 100 µM.

On to `CC(=O)Nc1ccc(/C=C2\N=C(c3ccccc3)OC2=O)cc1`, for which the TGI in the assay on HOP-62 NSCLC is above 100 µM; in the assay with MOLT-4 leukemia it was above 100 µM; with SNB-19 CNS, above 100 µM; with UACC-257 melanoma it was above 100 µM; with UACC-62 melanoma it was above 60.1 µM.

Take `CC(=O)OCC1OC(OCc2ccccc2)C(Br)C(OC(C)=O)C1OC(C)=O` (centres undefined): the TGI with A498 renal, in the assay with HOP-62 NSCLC, in the assay with MOLT-4 leukemia, in the assay on OVCAR-3 ovarian, in the assay on SNB-19 CNS and in the assay on UACC-257 melanoma was above 100 µM each time. Also, in the assay on UACC-62 melanoma, the TGI was above 100 µM.

In the case of `CCOC(=O)C(NO)C(Sc1ccccc1)c1ccc(OC)cc1` (centres undefined), the TGI with HOP-62 NSCLC, in the assay with MOLT-4 leukemia, with OVCAR-3 ovarian, with SNB-19 CNS, in the assay on UACC-257 melanoma and in the assay with UACC-62 melanoma was above 100 µM throughout.

Consider `CCOc1ccc(OCC)c([P+](c2ccccc2)(c2ccccc2)c2ccccc2)c1`, for which the TGI was 4.42 µM in the assay on A498 renal; 3.92 µM with HOP-62 NSCLC; 2.74 µM in the assay on OVCAR-3 ovarian; 12.7 µM with SNB-19 CNS; 3.8 µM in the assay on UACC-257 melanoma; 14.8 µM with UACC-62 melanoma.

Turning to `COc1ccc2c(c1)[n+](=O)c(C(=O)C/C(=N/NC(=O)C[N+](C)(C)C)C(=O)Nc1cccc(C)c1C)c(C)n2O`, the TGI with A498 renal, in the assay on HOP-62 NSCLC, in the assay on OVCAR-3 ovarian, with SNB-19 CNS, in the assay on UACC-257 melanoma and with UACC-62 melanoma was above 100 µM in each case.

As for `CN(C)CCn1cnc2ncccc2c1=O`, the TGI in the assay on HOP-62 NSCLC, in the assay with MOLT-4 leukemia, in the assay with OVCAR-3 ovarian, in the assay with SNB-19 CNS and in the assay on UACC-62 melanoma was above 100 µM each time.

Take `COc1ccc(S(=O)(=O)N[C@H](C(=O)O)c2ccccc2)cc1`: the TGI with HOP-62 NSCLC, in the assay on MOLT-4 leukemia, in the assay with OVCAR-3 ovarian, in the assay on SNB-19 CNS, in the assay on UACC-257 melanoma and with UACC-62 melanoma was above 100 µM each time.

As to `COC1OC(CBr)C(OC(=O)c2ccccc2)C(OS(=O)(=O)c2ccc(C)cc2)C1Br` (centres undefined), the TGI with A498 renal, in the assay on HOP-62 NSCLC, in the assay on MOLT-4 leukemia, with OVCAR-3 ovarian, in the assay on SNB-19 CNS and in the assay on UACC-257 melanoma was above 100 µM in each case.

For the compound `O=C(N/C(=C\c1ccccc1Cl)c1nc2ccccc2[nH]1)c1ccccc1`, the TGI with MOLT-4 leukemia, in the assay on OVCAR-3 ovarian, with SNB-19 CNS and in the assay on UACC-62 melanoma was above 100 µM throughout.

Consider `CN(NC1OC(CO)C(O)C(O)C1O)c1ccccc1` (centres undefined), for which the TGI with HOP-62 NSCLC, in the assay on MOLT-4 leukemia, in the assay with OVCAR-3 ovarian, with SNB-19 CNS, with UACC-257 melanoma and in the assay on UACC-62 melanoma was above 100 µM each time.

As to `CN(C)C(=O)NC(=S)N(C)C`, the TGI in the assay with A498 renal is above 100 µM; in the assay on HOP-62 NSCLC it was 1.52 µM; with MOLT-4 leukemia, above 100 µM; in the assay with SNB-19 CNS, above 100 µM; in the assay on UACC-257 melanoma, above 100 µM; in the assay with UACC-62 melanoma, above 100 µM.

`Clc1ccc(OCc2nnc3n2N=C(c2ccc(Br)cc2)CS3)cc1`: the concentration for total growth inhibition (TGI) in the assay on A498 renal is 25.7 µM; with MOLT-4 leukemia, above 100 µM; in the assay with SNB-19 CNS, 75.1 µM; with UACC-257 melanoma, 83.3 µM; with UACC-62 melanoma it was above 100 µM.

For `CCN(CC)CC(=O)NC1c2ccccc2Oc2c(C)cccc21` (centres undefined), the concentration for total growth inhibition (TGI) in the assay with HOP-62 NSCLC, in the assay with MOLT-4 leukemia, with SNB-19 CNS, with UACC-257 melanoma and in the assay on UACC-62 melanoma was above 100 µM throughout.

As for `O=C(CO[N+](=O)[O-])OC/C=C/c1ccccc1`, the TGI with HOP-62 NSCLC, with MOLT-4 leukemia, in the assay with OVCAR-3 ovarian, in the assay on SNB-19 CNS and in the assay on UACC-257 melanoma was above 100 µM in each case.

The TGI is the concentration at which net growth stops.
